Results published in ChEMBL document CHEMBL1201862, “PubChem BioAssay data set” (2004).
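Briefly, cells in 96-well plates were exposed to five compound concentrations for 48 h, and endpoints were estimated by linear interpolation. Abbreviation: GI50, concentration required for 50% inhibition of growth.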 Calls of active or inactive are those of the source. No stated cut-off is given here; in the data, active = GI50 up to about 1.1 µM and inactive = higher.

Tests used:
Test in all cases: NCI-60 cell line screen, 48 h
[1] = system: NCI/ADR-RES
[2] = system: T47D
[3] = system: NCI-H226
[4] = system: Hs-578T
[5] = system: RPMI-8226
[6] = system: Malme-3M
[7] = system: MDA-N
[8] = system: SNB-75
[9] = system: CAKI-1
[10] = system: SR
[11] = system: LOX IMVI
[12] = system: SN12C
[13] = system: NCI-H522
[14] = system: EKVX
[15] = system: TK-10
[16] = system: UO-31
[17] = system: MOLT-4
[18] = system: CCRF-CEM
[19] = system: HCC 2998
[20] = system: HL-60

Structure (SMILES) | GI50 [1] | GI50 [2] | GI50 [3] | GI50 [4] | GI50 [5] | GI50 [6] | GI50 [7] | GI50 [8] | GI50 [9] | GI50 [10] | GI50 [11] | GI50 [12] | GI50 [13] | GI50 [14] | GI50 [15] | GI50 [16] | GI50 [17] | GI50 [18] | GI50 [19] | GI50 [20]
CCOC(=O)C1CCCCN1CCc1c[nH]c2ccccc12 (configuration not stated) | 73.1 µM (inactive) | 32.5 µM (inactive) | 71.6 µM (inactive) | > 100 µM (inactive) | 84.7 µM (inactive) | > 100 µM (inactive) | > 100 µM (inactive) | > 100 µM (inactive) | > 100 µM (inactive) | > 100 µM (inactive) | > 100 µM (inactive) | > 100 µM (inactive) | 56.2 µM (inactive) | > 100 µM (inactive) | > 100 µM (inactive) | 83.4 µM (inactive) | 25.1 µM (inactive) | > 100 µM (inactive) | > 100 µM (inactive) | –
COc1cc(OC)cc(C(=O)CC(=O)c2cc(OC)cc(OC)c2)c1 | > 100 µM (inactive) | > 100 µM (inactive) | > 100 µM (inactive) | > 100 µM (inactive) | > 100 µM (inactive) | > 100 µM (inactive) | > 100 µM (inactive) | > 100 µM (inactive) | – | 47.8 µM (inactive) | – | > 100 µM (inactive) | – | > 100 µM (inactive) | > 100 µM (inactive) | > 100 µM (inactive) | > 100 µM (inactive) | 63.5 µM (inactive) | > 100 µM (inactive) | 6.01 µM (inactive)
CCOC(=O)C(COS(C)(=O)=O)(COS(C)(=O)=O)C(=O)OCC | > 100 µM (inactive) | > 100 µM (inactive) | > 100 µM (inactive) | > 100 µM (inactive) | – | – | > 100 µM (inactive) | > 100 µM (inactive) | – | > 100 µM (inactive) | > 100 µM (inactive) | > 100 µM (inactive) | > 100 µM (inactive) | – | > 100 µM (inactive) | > 100 µM (inactive) | > 100 µM (inactive) | > 100 µM (inactive) | > 100 µM (inactive) | –
CCN(CC)Cc1ccc(C(=S)Nc2ccc(Cl)cc2)s1 | 7.45 µM (inactive) | 11.2 µM (inactive) | – | 10.4 µM (inactive) | 6.31 µM (inactive) | – | 10.7 µM (inactive) | – | 12.7 µM (inactive) | 3.64 µM (inactive) | 4.82 µM (inactive) | – | 11.4 µM (inactive) | 4.06 µM (inactive) | – | 11.4 µM (inactive) | 4.54 µM (inactive) | 11.9 µM (inactive) | 12.6 µM (inactive) | 2.75 µM (inactive)
O=C(CCc1ccc(O)cc1)NCCc1cccc(OCc2ccccc2)c1 | 28.1 µM (inactive) | 21.7 µM (inactive) | 29 µM (inactive) | 35.3 µM (inactive) | – | 27.7 µM (inactive) | 25.1 µM (inactive) | – | 48 µM (inactive) | 15.4 µM (inactive) | 15.6 µM (inactive) | 75.3 µM (inactive) | 32.9 µM (inactive) | 31.5 µM (inactive) | 28.6 µM (inactive) | 12.7 µM (inactive) | 14 µM (inactive) | 2.96 µM (inactive) | 24.4 µM (inactive) | 16.6 µM (inactive)
OC1(c2ccc(Cl)cc2)c2c(c3ccccc3c3ccccc23)C2=NCCN21 (configuration not stated) | 11.5 µM (inactive) | 15.4 µM (inactive) | – | 4.58 µM (inactive) | 34.4 µM (inactive) | 16.5 µM (inactive) | 19.8 µM (inactive) | 2.91 µM (inactive) | 19.4 µM (inactive) | 4.42 µM (inactive) | 24.1 µM (inactive) | 16.3 µM (inactive) | – | 13.6 µM (inactive) | 4.98 µM (inactive) | 10.7 µM (inactive) | 10.8 µM (inactive) | > 100 µM (inactive) | 1.98 µM (inactive) | > 100 µM (inactive)
COc1ccc2c(c1)[n+]([O-])c(C#N)c(N1CCN(c3ccc([N+](=O)[O-])cc3)CC1)[n+]2[O-] | 2.45 µM (inactive) | 2.01 µM (inactive) | 10.7 µM (inactive) | 2.55 µM (inactive) | – | 2.64 µM (inactive) | 7.35 µM (inactive) | 8.53 µM (inactive) | 6 µM (inactive) | 0.41 µM (active) | 2.36 µM (inactive) | 6.37 µM (inactive) | 1.81 µM (inactive) | 2.74 µM (inactive) | 9.68 µM (inactive) | < 0.01 µM (active) | – | 1.92 µM (inactive) | > 100 µM (inactive) | 5.42 µM (inactive)
Cn1c2c(c3ccccc31)CCN=C2C1CCCOC1=O (configuration not stated) | > 100 µM (inactive) | > 100 µM (inactive) | 11.7 µM (inactive) | 32.6 µM (inactive) | – | > 100 µM (inactive) | > 100 µM (inactive) | 85.9 µM (inactive) | > 100 µM (inactive) | > 100 µM (inactive) | > 100 µM (inactive) | > 100 µM (inactive) | > 100 µM (inactive) | 88.3 µM (inactive) | > 100 µM (inactive) | 43.5 µM (inactive) | – | – | > 100 µM (inactive) | > 100 µM (inactive)
